Data on one compound can be found in ChEMBL document CHEMBL1157118, “Cooperative binding of a quinoline derivative to an RNA stem loop containing a dangling end” (Bioorg Med Chem Lett, 2010).

Active and inactive are the calls of the source. The rule behind the calls is not given here.

The Kd is a measure of binding affinity in units of concentration.

What all share (assay type): nucleic-acid assay
Experiment [1] concerns the target Nucleic Acid. The experiment can be described thus: Binding affinity to 3'-dangling end of RNA1 ligand binding site 2 by isothermal titration calorimetry.
In experiment [2] the test system is Nucleic Acid. Kind of experiment: Binding affinity to 3'-dangling end of RNA1 by UV reverse titration method.
Experiment [3] deals with Nucleic Acid. Kind of experiment: Binding affinity to 3'-dangling end of RNA1 by fluorescence spectroscopy analysis in presence of Triton X-100.
Experiment [4] addresses Nucleic Acid. The experiment can be described thus: Binding affinity to 3'-dangling end of RNA1 ligand binding site 3 by isothermal titration calorimetry.
The test system of experiment [5] is Nucleic Acid. The experiment can be described thus: Binding affinity to 3'-dangling end of RNA1 at 7.5 to 50 uM by CD spectroscopy.
In experiment [6] the target is Nucleic Acid. The experiment can be described thus: Binding affinity to 3'-dangling end of RNA1 ligand binding site 4 by isothermal titration calorimetry. (ITC needs no label: the signal is the heat of the interaction.)
Experiment [7] deals with Nucleic Acid. Kind of experiment: Binding affinity to 3'-dangling end of RNA1 by fluorescence spectroscopy analysis in absence of Triton X-100.
Experiment [8] has as its target Nucleic Acid. The experiment can be described thus: Binding affinity to 3'-dangling end of RNA1 ligand binding site 1 by isothermal titration calorimetry.

For `OC(CNc1ccnc2cc(Cl)ccc12)CNc1ccnc2cc(Cl)ccc12`, the Kd came to 9.2 µM on Nucleic Acid [1]; 12 µM at Nucleic Acid [3]; 8.1 µM on Nucleic Acid [4]; 12.5 µM at Nucleic Acid [6]; 8.2 µM on Nucleic Acid [7]; 10.8 µM at Nucleic Acid [8]. Also, the outcome in the experiment with Nucleic Acid [2] and in the experiment with Nucleic Acid [5] was Active.
